The subject of the assay is highly tumorigenic variant of the M-3 cells. The class given is in vivo, mice.

Take “LFEAIEGFI [Leu Phe Glu Ala Ile Glu Gly Phe Ile, viral peptide derived from the influenza virus haemagglutinin, H2-K^d-ligand, used as foreign peptide to charge tumour cells]”: the animals cured (cells charged with peptide using TfpL/DNA complexes) is given as 6 out of 8. In addition, the animals developed tumours (peptide simply mixed with the cells (adjuvant)) is reported as 7 out of 8.

The record behind these values is patent publication US20020085997A1, “TUMOUR VACCINE AND PROCESS FOR THE PREPARATION THEREOF” (priority 1995, published 2002).
